This note sets out measurements from US20080269241A1, “BICYCLIC AMINOPROPYL TETRAHYDRO-PYRAZOLO-PYRIDINE MODULATORS OF CATHEPSIN S” (priority 2007, published 2008).

By IC50 is commonly meant the concentration at which inhibition is half-maximal.

This experiment deals with T1, human cathepsin S (CatS) (Homo sapiens, UniProt P25774).
T1 construct: made in house; host or cells: baculovirus system (insect cells)
The experiment is described as follows: Recombinant human cathepsin S (CatS) fluorogenic substrate inhibition assay. The format is biochemical. To be noted: recombinant human CatS, 10 μM Z-Valine-Valine-Arginine-AMC, pH 5.0; average of results obtained; read-out: CatS IC50. Here is the method:
Recombinant human cathepsin S (CatS) was expressed in the baculovirus system and purified in one step with a thiopropyl-sepharose column. […] The assay is run in 150 mM sodium acetate pH 5.0 containing 1.5 mM DTT and 150 mM NaCl. […] Measurements are taken every min for 20 min. The rate is calculated from the slope of the increase in fluorescence and the percent inhibition is calculated from this.

T1 sequence (P25774 115-331): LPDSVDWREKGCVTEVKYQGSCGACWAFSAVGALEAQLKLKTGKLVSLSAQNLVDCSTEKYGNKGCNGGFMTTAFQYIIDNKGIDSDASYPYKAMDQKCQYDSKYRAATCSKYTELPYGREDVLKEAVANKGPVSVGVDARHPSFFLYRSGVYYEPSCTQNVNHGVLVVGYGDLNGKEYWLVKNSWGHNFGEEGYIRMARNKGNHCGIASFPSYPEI

Take `CC(C)=CC(=O)NCc1cc(-c2nn(CCCN3CCC(N4CCCC4=O)CC3)c3c2CN(S(C)(=O)=O)CC3)ccc1C(F)(F)F` [Example 42, 3-Methyl-but-2-enoic acid 5-(5-methanesulfonyl-1-{3-[4-(2-oxo-pyrrolidin-1-yl)-piperidin-1-yl]-propyl}-4,5,6,7-tetrahydro-1H-pyrazolo[4,3-c]pyridin-3-yl)-2-trifluoromethyl-benzylamide]: the IC50 turned out to be 30 nM.

Consider `CC(C)OC(=O)NCc1cc(-c2nn(CCCN3CCC(N4CCCC4=O)CC3)c3c2CN(S(C)(=O)=O)CC3)ccc1C(F)(F)F` [Example 43, [5-(5-Methanesulfonyl-1-{3-[4-(2-oxo-pyrrolidin-1-yl)-piperidin-1-yl]-propyl}-4,5,6,7-tetrahydro-1H-pyrazolo[4,3-c]pyridin-3-yl)-2-trifluoromethyl-benzyl]-carbamic acid isopropyl ester], for which the IC50 came out at 80 nM.

For `CC(C)NC(=O)NCc1cc(-c2nn(CCCN3CCC(N4CCCC4=O)CC3)c3c2CN(S(C)(=O)=O)CC3)ccc1C(F)(F)F` [Example 44, 1-Isopropyl-3-[5-(5-methanesulfonyl-1-{3-[4-(2-oxo-pyrrolidin-1-yl)-piperidin-1-yl]-propyl}-4,5,6,7-tetrahydro-1H-pyrazolo[4,3-c]pyridin-3-yl)-2-trifluoromethyl-benzyl]-urea], the IC50 is 160 nM.

For `CS(=O)(=O)N1CCc2c(c(-c3ccc(C(F)(F)F)c(CNC(=O)N4CCOCC4)c3)nn2CCCN2CCC(N3CCCC3=O)CC2)C1` [Example 45, Morpholine-4-carboxylic acid 5-(5-methanesulfonyl-1-{3-[4-(2-oxo-pyrrolidin-1-yl)-piperidin-1-yl]-propyl}-4,5,6,7-tetrahydro-1H-pyrazolo[4,3-c]pyridin-3-yl)-2-trifluoromethyl-benzylamide], the IC50 was found to be 80 nM.

`CSC(=O)NCc1cc(-c2nn(CCCN3CCC(N4CCCC4=O)CC3)c3c2CN(S(C)(=O)=O)CC3)ccc1C(F)(F)F` [Example 46, [5-(5-Methanesulfonyl-1-{3-[4-(2-oxo-pyrrolidin-1-yl)-piperidin-1-yl]-propyl}-4,5,6,7-tetrahydro-1H-pyrazolo[4,3-c]pyridin-3-yl)-2-trifluoromethyl-benzyl]-thiocarbamic acid S-methyl ester]: the IC50 is 410 nM.

As to `CC(C)CCNCc1cc(-c2nn(CCCN3CCC(N4CCCC4=O)CC3)c3c2CN(S(C)(=O)=O)CC3)ccc1C(F)(F)F` [Example 47, 1-{1-[3-(5-Methanesulfonyl-3-{3-[(3-methyl-butylamino)-methyl]-4-trifluoromethyl-phenyl}-4,5,6,7-tetrahydro-pyrazolo[4,3-c]pyridin-1-yl)-propyl]-piperidin-4-yl}-pyrrolidin-2-one], the half-maximal inhibitory concentration (IC50) was found to be 300 nM.

Take `CS(=O)(=O)N1CCc2c(c(-c3ccc(C(F)(F)F)c(CNC(=O)c4ccc(Br)s4)c3)nn2CC(O)CN2CCC(N3CCCC3=O)CC2)C1` (centres unmarked) [Example 48, 5-Bromo-thiophene-2-carboxylic acid 5-(1-{2-hydroxy-3-[4-(2-oxo-pyrrolidin-1-yl)-piperidin-1-yl]-propyl}-5-methanesulfonyl-4,5,6,7-tetrahydro-1H-pyrazolo[4,3-c]pyridin-3-yl)-2-trifluoromethyl-benzylamide]: the concentration for half-maximal inhibition (IC50) is 30 nM.

With `Cc1ccsc1C(=O)NCc1cc(-c2nn(CC(O)CN3CCC(N4CCCC4=O)CC3)c3c2CN(S(C)(=O)=O)CC3)ccc1C(F)(F)F` (centres unmarked) [Example 49, 3-Methyl-thiophene-2-carboxylic acid 5-(1-{2-hydroxy-3-[4-(2-oxo-pyrrolidin-1-yl)-piperidin-1-yl]-propyl}-5-methanesulfonyl-4,5,6,7-tetrahydro-1H-pyrazolo[4,3-c]pyridin-3-yl)-2-trifluoromethyl-benzylamide], the IC50 is 160 nM.

Consider `CS(=O)(=O)N1CCc2c(c(-c3ccc(C(F)(F)F)c(CNC(=O)c4cc5c(s4)CCC5)c3)nn2CC(O)CN2CCC(N3CCCC3=O)CC2)C1` (centres unmarked) [Example 50, 5,6-Dihydro-4H-cyclopenta[b]thiophene-2-carboxylic acid 5-(1-{2-hydroxy-3-[4-(2-oxo-pyrrolidin-1-yl)-piperidin-1-yl]-propyl}-5-methanesulfonyl-4,5,6,7-tetrahydro-1H-pyrazolo[4,3-c]pyridin-3-yl)-2-trifluoromethyl-benzylamide], for which the IC50 amounted to 30 nM.

For `Cc1nnsc1C(=O)NCc1cc(-c2nn(CC(O)CN3CCC(N4CCCC4=O)CC3)c3c2CN(S(C)(=O)=O)CC3)ccc1C(F)(F)F` (centres unmarked) [Example 51, 4-Methyl-[1,2,3]thiadiazole-5-carboxylic acid 5-(1-{2-hydroxy-3-[4-(2-oxo-pyrrolidin-1-yl)-piperidin-1-yl]-propyl}-5-methanesulfonyl-4,5,6,7-tetrahydro-1H-pyrazolo[4,3-c]pyridin-3-yl)-2-trifluoromethyl-benzylamide], the IC50 came out at 200 nM.

On to `CS(=O)(=O)N1CCc2c(c(-c3ccc(C(F)(F)F)c(CNC(=O)c4ccco4)c3)nn2CC(O)CN2CCC(N3CCCC3=O)CC2)C1` (centres unmarked) [Example 52, Furan-2-carboxylic acid 5-(1-{2-hydroxy-3-[4-(2-oxo-pyrrolidin-1-yl)-piperidin-1-yl]-propyl}-5-methanesulfonyl-4,5,6,7-tetrahydro-1H-pyrazolo[4,3-c]pyridin-3-yl)-2-trifluoromethyl-benzylamide], for which the IC50 is 190 nM.

Turning to `CS(=O)(=O)N1CCc2c(c(-c3ccc(C(F)(F)F)c(CNC(=O)c4ccccn4)c3)nn2CC(O)CN2CCC(N3CCCC3=O)CC2)C1` (centres unmarked) [Example 53, Pyridine-2-carboxylic acid 5-(1-{2-hydroxy-3-[4-(2-oxo-pyrrolidin-1-yl)-piperidin-1-yl]-propyl}-5-methanesulfonyl-4,5,6,7-tetrahydro-1H-pyrazolo[4,3-c]pyridin-3-yl)-2-trifluoromethyl-benzylamide], the IC50 came to 190 nM.

As for `CS(=O)(=O)N1CCc2c(c(-c3ccc(C(F)(F)F)c(CNC(=O)c4ccc(C(F)(F)F)nc4)c3)nn2CC(O)CN2CCC(N3CCCC3=O)CC2)C1` (centres unmarked) [Example 54, N-[5-(1-{2-Hydroxy-3-[4-(2-oxo-pyrrolidin-1-yl)-piperidin-1-yl]-propyl}-5-methanesulfonyl-4,5,6,7-tetrahydro-1H-pyrazolo[4,3-c]pyridin-3-yl)-2-trifluoromethyl-benzyl]-6-trifluoromethyl-nicotinamide], the IC50 stood at 70 nM.

Regarding `CS(=O)(=O)N1CCc2c(c(-c3ccc(C(F)(F)F)c(CNC(=O)/C=C/c4ccccc4)c3)nn2CC(O)CN2CCC(N3CCCC3=O)CC2)C1` (centres unmarked) [Example 55, N-[5-(1-{2-Hydroxy-3-[4-(2-oxo-pyrrolidin-1-yl)-piperidin-1-yl]-propyl}-5-methanesulfonyl-4,5,6,7-tetrahydro-1H-pyrazolo[4,3-c]pyridin-3-yl)-2-trifluoromethyl-benzyl]-3-phenyl-acrylamide], the IC50 stood at 320 nM.

Take `CS(=O)(=O)N1CCc2c(c(-c3ccc(Cl)c(CNC(=O)c4ccc(F)cc4)c3)nn2CC(O)CN2CCC(N3CCCCC3=O)CC2)C1` (centres unmarked) [Example 72, N-(2-Chloro-5-{1-[2-hydroxy-3-(2-oxo-[1,4′]bipiperidinyl-1′-yl)-propyl]-5-methanesulfonyl-4,5,6,7-tetrahydro-1H-pyrazolo[4,3-c]pyridin-3-yl}-benzyl)-4-fluoro-benzamide]: the half-maximal inhibitory concentration (IC50) was 10 nM.

As to `CN(C)c1ccc2c(n1)n(C1CCN(CC(O)Cn3nc(-c4ccc(Cl)c(CNC(=O)c5ccc(F)cc5)c4)c4c3CCN(S(C)(=O)=O)C4)CC1)c(=O)n2C` (centres unmarked) [Example 76, N-[2-Chloro-5-(1-{3-[4-(5-dimethylamino-1-methyl-2-oxo-1,2-dihydroimidazo[4,5-b]pyridin-3-yl)-piperidin-1-yl]-2-hydroxy-propyl}-5-methanesulfonyl-4,5,6,7-tetrahydro-1H-pyrazolo[4,3-c]pyridin-3-yl)-benzyl]-4-fluoro-benzamide], the IC50 stood at 10 nM.

Turning to `CS(=O)(=O)N1CCc2c(c(-c3ccc(Cl)c(CNC(=O)c4ccc(F)cc4)c3)nn2CC(O)CN2CCC(N3CCOCC3)CC2)C1` (centres unmarked) [Example 79, N-(2-Chloro-5-{1-[2-hydroxy-3-(4-morpholin-4-yl-piperidin-1-yl)-propyl]-5-methanesulfonyl-4,5,6,7-tetrahydro-1H-pyrazolo[4,3-c]pyridin-3-yl}-benzyl)-4-fluoro-benzamide], the IC50 is 60 nM.

Turning to `CS(=O)(=O)N1CCc2c(c(-c3ccc(C(F)(F)F)c(CNC(=O)c4ccc(F)cc4O)c3)nn2CC(O)CN2CCC(N3CCCC3=O)CC2)C1` (centres unmarked) [Example 104, 4-Fluoro-2-hydroxy-N-[5-(1-{2-hydroxy-3-[4-(2-oxo-pyrrolidin-1-yl)-piperidin-1-yl]-propyl}-5-methanesulfonyl-4,5,6,7-tetrahydro-1H-pyrazolo[4,3-c]pyridin-3-yl)-2-trifluoromethyl-benzyl]-benzamide], the IC50 came out at 60 nM.

In the case of `CS(=O)(=O)N1CCc2c(c(-c3ccc(C(F)(F)F)c(CNC(=O)c4cccs4)c3)nn2CC(O)CN2CCC(N3CCCC3=O)CC2)C1` (centres unmarked) [Example 105, Thiophene-2-carboxylic acid 5-(1-{2-hydroxy-3-[4-(2-oxo-pyrrolidin-1-yl)-piperidin-1-yl]-propyl}-5-methanesulfonyl-4,5,6,7-tetrahydro-1H-pyrazolo[4,3-c]pyridin-3-yl)-2-trifluoromethyl-benzylamide], the IC50 was 40 nM.

`CS(=O)(=O)N1CCc2c(c(-c3ccc(C(F)(F)F)c(CNC(=O)c4cc5ccccc5s4)c3)nn2CC(O)CN2CCC(N3CCCC3=O)CC2)C1` (centres unmarked) [Example 106, Benzo[b]thiophene-2-carboxylic acid 5-(1-{2-hydroxy-3-[4-(2-oxo-pyrrolidin-1-yl)-piperidin-1-yl]-propyl}-5-methanesulfonyl-4,5,6,7-tetrahydro-1H-pyrazolo[4,3-c]pyridin-3-yl)-2-trifluoromethyl-benzylamide]: the IC50 was determined as 60 nM.
